Experimental data from patent US10004711B2, “Methods and compositions comprising 10-hydroxy-2-decenoic acid” (DSM IP ASSETS B.V., priority 2014, dated 2018).

Legend:
[1] = Body weight of aged male rats fed QBA (Example 7); type: in vivo, rat
Procedure: Aged male rats were fed 10-Hydroxy-2-decenoic acid (QBA) for approximately 7 months from 11-months to 18-months of age and the weight of rats was recorded.

[2] = test system: Young adult female Long-Evans rats; experiment: Conception index of female rats with abnormal ovulatory cycles; type: in vivo, rat; conditions: for Conception Index (%): eight weeks, then mated
Procedure: Young adult female Long-Evans rats (3 months-old) with abnormal ovulatory cycles were fed diets containing 10-Hydroxy-2-decenoic acid (QBA) or no QBA for eight (8) weeks and then mated with a male rat. Female rats having normal ovulatory cycles were used as positive controls and were not fed QBA. The conception index was determined. The conception index is a measure of conception efficiency and is equal to the number of pregnancies divided by the number of discernable mating sessions multiplied by 100.

[3] = test system: RAW264.7 mouse macrophage cell line; experiment: IL-1β levels after LPS stimulation; type: cell-based; conditions: for IL-1β (pg/mL)/Cell Numbers: 24 h
Procedure: Cultures of the RAW264.7 mouse macrophage cell line were pre-treated with 10-Hydroxy-2-decenoic acid (QBA) for 1 hour prior to stimulation with lipopolysaccharide (LPS, 100 ng/mL). After 24 hours of incubation, interleukin […] (IL-1β) and tumor necrosis factor-α (TNFα) levels were determined by Luminex technology and cell numbers were measured using Alamar Blue. Results are given as a ratio of cytokine concentration/cell number.

[4] = test system: histone deacetylases; conditions: Spannhoff et al. 2011; cited from earlier work

O=C(O)C=CCCCCCCCO [QBA, 10-Hydroxy-2-decenoic acid]
Avg Wt ([1]; QBA 0.4 mg/kg/day, study day 0): 509.6 g | Avg Wt ([1]; QBA 0.4 mg/kg/day, study day 7): 516.1 g | Avg Wt ([1]; QBA 0.4 mg/kg/day, study day 21): 524.4 g | Avg Wt ([1]; QBA 0.4 mg/kg/day, study day 29): 508.6 g | Avg Wt ([1]; QBA 0.4 mg/kg/day, study day 36): 523.1 g | Avg Wt ([1]; QBA 0.4 mg/kg/day, study day 50): 554.6 g | Avg Wt ([1]; QBA 0.4 mg/kg/day, study day 57): 559.5 g | Avg Wt ([1]; QBA 0.4 mg/kg/day, study day 64): 566.7 g | Avg Wt ([1]; QBA 0.4 mg/kg/day, study day 71): 568.6 g | Avg Wt ([1]; QBA 0.4 mg/kg/day, study day 78): 570.3 g | Avg Wt ([1]; QBA 0.4 mg/kg/day, study day 85): 577.3 g | Avg Wt ([1]; QBA 0.4 mg/kg/day, study day 92): 581.3 g | Avg Wt ([1]; QBA 0.4 mg/kg/day, study day 99): 583.8 g | Avg Wt ([1]; QBA 0.4 mg/kg/day, study day 106): 592.7 g | Avg Wt ([1]; QBA 0.4 mg/kg/day, study day 113): 593.2 g | Avg Wt ([1]; QBA 0.4 mg/kg/day, study day 120): 596.8 g | Avg Wt ([1]; QBA 0.4 mg/kg/day, study day 127): 590.7 g | Avg Wt ([1]; QBA 0.4 mg/kg/day, study day 141): 589.8 g | Avg Wt ([1]; QBA 0.4 mg/kg/day, study day 148): 578.0 g | Avg Wt ([1]; QBA 0.4 mg/kg/day, study day 155): 585.4 g | Avg Wt ([1]; QBA 0.4 mg/kg/day, study day 162): 593.6 g | Avg Wt ([1]; QBA 0.4 mg/kg/day, study day 169): 601.7 g | Avg Wt ([1]; QBA 0.4 mg/kg/day, study day 176): 573.6 g | Avg Wt ([1]; QBA 0.4 mg/kg/day, study day 182): 588.7 g | Avg Wt ([1]; QBA 0.4 mg/kg/day, study day 190): 584.1 g | Avg Wt ([1]; QBA 0.4 mg/kg/day, study day 197): 582.6 g | Avg Wt ([1]; QBA 0.4 mg/kg/day, study day 204): 580.1 g | Avg Wt ([1]; QBA 0.4 mg/kg/day, study day 211): 575.8 g | Avg Wt ([1]; QBA 0.4 mg/kg/day, study day 217): 582.6 g | Avg Wt ([1]; QBA 4 mg/kg/day, study day 0): 509.8 g | Avg Wt ([1]; QBA 4 mg/kg/day, study day 7): 518.9 g | Avg Wt ([1]; QBA 4 mg/kg/day, study day 21): 527.4 g | Avg Wt ([1]; QBA 4 mg/kg/day, study day 29): 511.6 g | Avg Wt ([1]; QBA 4 mg/kg/day, study day 36): 526.8 g | Avg Wt ([1]; QBA 4 mg/kg/day, study day 50): 567.3 g | Avg Wt ([1]; QBA 4 mg/kg/day, study day 57): 571.0 g | Avg Wt ([1]; QBA 4 mg/kg/day, study day 64): 576.4 g | Avg Wt ([1]; QBA 4 mg/kg/day, study day 71): 576.2 g | Avg Wt ([1]; QBA 4 mg/kg/day, study day 78): 584.8 g | Avg Wt ([1]; QBA 4 mg/kg/day, study day 85): 587.5 g | Avg Wt ([1]; QBA 4 mg/kg/day, study day 92): 584.3 g | Avg Wt ([1]; QBA 4 mg/kg/day, study day 99): 595.4 g | Avg Wt ([1]; QBA 4 mg/kg/day, study day 106): 592.5 g | Avg Wt ([1]; QBA 4 mg/kg/day, study day 113): 594.7 g | Avg Wt ([1]; QBA 4 mg/kg/day, study day 120): 592.2 g | Avg Wt ([1]; QBA 4 mg/kg/day, study day 127): 592.4 g | Avg Wt ([1]; QBA 4 mg/kg/day, study day 141): 593.1 g | Avg Wt ([1]; QBA 4 mg/kg/day, study day 148): 588.0 g | Avg Wt ([1]; QBA 4 mg/kg/day, study day 155): 587.8 g | Avg Wt ([1]; QBA 4 mg/kg/day, study day 162): 589.5 g | Avg Wt ([1]; QBA 4 mg/kg/day, study day 169): 594.0 g | Avg Wt ([1]; QBA 4 mg/kg/day, study day 176): 601.7 g | Avg Wt ([1]; QBA 4 mg/kg/day, study day 182): 588.0 g | Avg Wt ([1]; QBA 4 mg/kg/day, study day 190): 597.8 g | Avg Wt ([1]; QBA 4 mg/kg/day, study day 197): 597.7 g | Avg Wt ([1]; QBA 4 mg/kg/day, study day 204): 601.8 g | Avg Wt ([1]; QBA 4 mg/kg/day, study day 211): 596.6 g | Avg Wt ([1]; QBA 4 mg/kg/day, study day 217): 595.9 g | Avg Wt ([1]; QBA 12 mg/kg/day, study day 0): 508.7 g | Avg Wt ([1]; QBA 12 mg/kg/day, study day 7): 508.8 g | Avg Wt ([1]; QBA 12 mg/kg/day, study day 21): 508.0 g | Avg Wt ([1]; QBA 12 mg/kg/day, study day 29): 490.2 g | Avg Wt ([1]; QBA 12 mg/kg/day, study day 36): 511.7 g | Avg Wt ([1]; QBA 12 mg/kg/day, study day 50): 554.3 g | Avg Wt ([1]; QBA 12 mg/kg/day, study day 57): 551.4 g | Avg Wt ([1]; QBA 12 mg/kg/day, study day 64): 567.6 g | Avg Wt ([1]; QBA 12 mg/kg/day, study day 71): 574.1 g | Avg Wt ([1]; QBA 12 mg/kg/day, study day 78): 573.1 g | Avg Wt ([1]; QBA 12 mg/kg/day, study day 85): 574.6 g | Avg Wt ([1]; QBA 12 mg/kg/day, study day 92): 581.2 g | Avg Wt ([1]; QBA 12 mg/kg/day, study day 99): 584.5 g | Avg Wt ([1]; QBA 12 mg/kg/day, study day 106): 591.2 g | Avg Wt ([1]; QBA 12 mg/kg/day, study day 113): 591.2 g | Avg Wt ([1]; QBA 12 mg/kg/day, study day 120): 586.1 g | Avg Wt ([1]; QBA 12 mg/kg/day, study day 127): 593.3 g | Avg Wt ([1]; QBA 12 mg/kg/day, study day 141): 595.8 g | Avg Wt ([1]; QBA 12 mg/kg/day, study day 148): 592.9 g | Avg Wt ([1]; QBA 12 mg/kg/day, study day 155): 591.1 g | Avg Wt ([1]; QBA 12 mg/kg/day, study day 162): 580.5 g | Avg Wt ([1]; QBA 12 mg/kg/day, study day 169): 588.2 g | Avg Wt ([1]; QBA 12 mg/kg/day, study day 176): 593.0 g | Avg Wt ([1]; QBA 12 mg/kg/day, study day 182): 590.6 g | Avg Wt ([1]; QBA 12 mg/kg/day, study day 190): 599.5 g | Avg Wt ([1]; QBA 12 mg/kg/day, study day 197): 600.8 g | Avg Wt ([1]; QBA 12 mg/kg/day, study day 204): 595.5 g | Avg Wt ([1]; QBA 12 mg/kg/day, study day 211): 599.6 g | Avg Wt ([1]; QBA 12 mg/kg/day, study day 217): 593.7 g | Avg Wt ([1]; QBA 24 mg/kg/day, study day 0): 516.8 g | Avg Wt ([1]; QBA 24 mg/kg/day, study day 7): 510.9 g | Avg Wt ([1]; QBA 24 mg/kg/day, study day 21): 530.8 g | Avg Wt ([1]; QBA 24 mg/kg/day, study day 29): 512.3 g | Avg Wt ([1]; QBA 24 mg/kg/day, study day 36): 546.4 g | Avg Wt ([1]; QBA 24 mg/kg/day, study day 50): 574.6 g | Avg Wt ([1]; QBA 24 mg/kg/day, study day 57): 586.8 g | Avg Wt ([1]; QBA 24 mg/kg/day, study day 64): 594.2 g | Avg Wt ([1]; QBA 24 mg/kg/day, study day 71): 598.5 g | Avg Wt ([1]; QBA 24 mg/kg/day, study day 78): 600.7 g | Avg Wt ([1]; QBA 24 mg/kg/day, study day 85): 608.8 g | Avg Wt ([1]; QBA 24 mg/kg/day, study day 92): 614.9 g | Avg Wt ([1]; QBA 24 mg/kg/day, study day 99): 618.1 g | Avg Wt ([1]; QBA 24 mg/kg/day, study day 106): 626.7 g | Avg Wt ([1]; QBA 24 mg/kg/day, study day 113): 628.4 g | Avg Wt ([1]; QBA 24 mg/kg/day, study day 120): 628.6 g | Avg Wt ([1]; QBA 24 mg/kg/day, study day 127): 630.3 g | Avg Wt ([1]; QBA 24 mg/kg/day, study day 141): 632.0 g | Avg Wt ([1]; QBA 24 mg/kg/day, study day 148): 635.4 g | Avg Wt ([1]; QBA 24 mg/kg/day, study day 155): 636.3 g | Avg Wt ([1]; QBA 24 mg/kg/day, study day 162): 637.3 g | Avg Wt ([1]; QBA 24 mg/kg/day, study day 169): 628.4 g | Avg Wt ([1]; QBA 24 mg/kg/day, study day 176): 643.9 g | Avg Wt ([1]; QBA 24 mg/kg/day, study day 182): 646.0 g | Avg Wt ([1]; QBA 24 mg/kg/day, study day 190): 649.5 g | Avg Wt ([1]; QBA 24 mg/kg/day, study day 197): 653.3 g | Avg Wt ([1]; QBA 24 mg/kg/day, study day 204): 644.4 g | Avg Wt ([1]; QBA 24 mg/kg/day, study day 211): 647.8 g | Avg Wt ([1]; QBA 24 mg/kg/day, study day 217): 650.6 g | body weight versus control, repeated measures ANOVA ([1]; all doses versus 0 mg/kg/day QBA): small but significant increase | body weight maintenance in aging male rats ([1]; summary of Table 13): helped to maintain healthy body weight | Conception Index (%) ([2]; QBA 0.4 mg/kg/day): 112.5% | Conception Index (%) ([2]; QBA 4 mg/kg/day): 107.7% | Conception Index (%) ([2]; QBA 12 mg/kg/day): 225.0% | Conception Index (%) ([2]; QBA 24 mg/kg/day): 200.0% | conception index ([2]; summary of Table 17): increased the conception index | IL-1β (pg/mL)/Cell Numbers ([3]; QBA 50 μM 1 h before LPS 100 ng/mL): 0.00386 (pg/mL)/Cell Numbers | IL-1β (pg/mL)/Cell Numbers ([3]; QBA 100 μM 1 h before LPS 100 ng/mL): 0.00402 (pg/mL)/Cell Numbers | IL-1β (pg/mL)/Cell Numbers ([3]; QBA 500 μM 1 h before LPS 100 ng/mL): 0.00242 (pg/mL)/Cell Numbers | IL-1β (pg/mL)/Cell Numbers ([3]; QBA 1000 μM 1 h before LPS 100 ng/mL): 0.00242 (pg/mL)/Cell Numbers | IL-1β (pg/mL)/Cell Numbers ([3]; QBA 2500 μM 1 h before LPS 100 ng/mL): 0.00097 (pg/mL)/Cell Numbers | IL-1β (pg/mL)/Cell Numbers ([3]; QBA 5000 μM 1 h before LPS 100 ng/mL): 0.00067 (pg/mL)/Cell Numbers | production of IL-1β in immune cells ([3]; summary of Table 9): reduced the production | histone deacetylase inhibition [4]: inhibits histone deacetylases
